Experiments:
B. subtilis = test: Shake flask growth (OD600) with supplementation of toxic substances; type: cell-based, Bacillus subtilis subsp. 168; conditions: 3 g/L oAB, pH 7 (MOPS), 100-mL shake flask, 25 h
From the text: (§1) Several strains commonly used industrial biotechnology were investigated regarding their natural tolerance towards oAB and to organic solvents in question for later product extraction (e.g. 1-dodecanol or octanol). Furthermore, the influence of the used pH value was investigated. It was known from previous experiments that at least for E. coli the toxicity of aromatic compounds depends strongly on the pH value, probably because protonated acids can much more efficiently penetrate the cell membrane and accordingly their toxicity rises severely. The extraction of oAB in an organic phase is supposed to work best at low pH values, close to the isoelectric point of oAB. The most relevant host strains considered were: Escherichia coli K12, Corynebacterium glutamicum DSM 20300 (=ATCC 13032), Pseudomonas putida KT2440, Bacillus subtilis subsp. 168, Saccharomyces cerevisiae DSM 70449, and Pichia pastoris X33 (DSM 70382).
(§2) To investigate the chosen strains towards the mentioned characteristics shake flasks and small scale fermentation experiments were performed and the organisms were supplemented with the toxic substances (aminobenzoates, solvents) at differed concentrations, different pH values, and the behaviour of the strains was studied. […]

E. coli = test: as above; type: cell-based, Escherichia coli K12; conditions: already low concentrations
From the text: as §1, §2

[1] = system: Corynebacterium glutamicum; test: Aminobenzoate stability in fermenter culture supernatants by HPLC-DAD; conditions: HPLC-DAD 254 nm
From the text: It had to be excluded that the aminobenzoates were degraded by the organism and therefor the growth is restored after the prolonged lag-phase. To investigate the aminobenzoate stability in the fermenters culture supernatant samples were collected during the fermentation and analyzed by HPLC-DAD (254 nm) (see FIG. 23 and Example 3).
In a further experiment the concentration of oAB was increased to investigate the effect on the C. glutamicum strain. The four fermenters were hereto supplemented with 0 g/L, 15 g/L, 35 g/L and 80 g/L of oAB. […] The rest of the cultivation conditions was kept as described above. […] Cultures supplemented with 15 g/L oAB have shown an extensive lag-phase over 34-48 h before growth was recovered and cells entered the exponential phase (see FIG. 24). […]
An Agilent 1100 series HPLC-DAD system (with diode array detector; Agilent Technologies, Santa Clara (USA)) was used to quantify oAB concentrations in culture supernatants. […] The following gradient with a flow rate of 0.5 mL/min was applied: 0-1 min, 2% B; 1-2 min, 2-10% B; 2-12 min, 10-70% B; 12-23 min, 70-90% B; 23-25 min, 90-98% B, 25-27 min, 98% B; 27-27.5 min, 98%-2% B; 27.5-30 min, 2% B. The oAB concentration was determined from the signal integration at 254 nm (retention time: 18.9 min) using an external calibration curve.

[2] = Solubility of AA in aniline; type: physicochemical
From the text: Aniline is a much better solvent for AA than dodecanol and, being also the product of the decarboxylation, its use presented great advantages compared to 1-dodecanol.

Question: What does the source list for `Nc1ccccc1C(=O)O` [oAB, 2-aminobenzoic acid]?
Answer: growth (OD600) (B. subtilis): strongly decreased; toxicity of o-aminobenzoate (E. coli): toxic; degradation during cultivation / fermentation [1]: excluded; AA that could be dissolved in aniline ([2]; 50° C.): up to 40%; AA that could be dissolved in aniline ([2]; 90° C.): up to 50%; AA that could be dissolved in aniline ([2]; room temperature (20° C.)): up to 30%

Source: patent publication US10731187B2, “Recombinant strain producing O-aminobenzoate and fermentative production of aniline from renewable resources via 2-aminobenzoic acid” (Covestro Deutschland AG, priority 2014, dated 2020)
